Measurements: patent US11617745B2, “Compositions and methods for generating hair cells by downregulating FOXO” (Frequency Therapeutics, Inc., priority 2018, dated 2023)
“Also recorded” adds a separate entry of the source.

Test system: cochlear Lgr5+ progenitor cells
Assay: Expansion of Lgr5 cells in 3D culture, Lgr5-EGFP cells counted by flow cytometry
Format: cell-based, mice
Protocol: Neonatal Lgr5-EGFP-IRES-Cre-ER mice (The Jackson Laboratory, strain 8875) were used to analyze the effects of small molecules on cochlear stem cell expansion (see Barker et al., Nature 449, 1003-7 (2007). This strain allowed for visualization and quantification of EGFP cells.
All animal studies were conducted under an approved institutional protocol per National Institutes of Health guidelines. Using neonatal animals, cochleae were dissected and the organ of Corti (sensory epithelium) was separated from the stria vascularis (ion transport epithelium) and the modiolus (nerve tissue). Epithelia were then collected and treated with TrypLE for 15-20 minutes to obtain single cells. The cells were then filtered ([…]) and suspended in a Matrigel (Corning) dome for 3D culture seeded at 0.5 cochlea per well.
Expansion of Lgr5 Cells: Cells were cultured in a 3D system and bathed in a serum free 1:1 mixture of DMEM and F12, supplemented with Glutamax (GIBCO), N2, B27 (Invitrogen), EGF (50 ng/mL; Chemicon), bFGF (50 ng/mL; Chemicon), IGF-1 (50 ng/mL; Chemicon), and small molecules for seven days. Media was changed every other day. Treatments were run in triplicate or quadruplicate.
Quantification of Cell Proliferation: Lgr5 cells were quantified after 7-10 days. Cell colonies were dissociated into single cells using TrypLE. The cells were then stained with propidium iodide (PI) and analyzed using a flow cytometer to count Lgr5-EGFP cells. The percentage of viable Lgr5 cells was plotted against the concentration in GraphPad Prism.

Compound: CCn1cc(C(=O)O)c(=O)c2c(N)c(F)c(NC3CCCCC3)cc21 [AS1842856]
- expansion of cochlear Lgr5+ progenitor cells in culture (AS1842856 425 nM, background of EFI): elicits the expansion
- enrichment of Lgr5 cells according to percentage (AS1842856 (425 nM) combined with VPA (1 mM), background of EFI): enriched according to percentage
- Lgr5-GFP colony formation (images of Lgr5+ cell culture) (EFI-AS1842856 alone): promotes Lgr5-GFP colony formation
- Lgr5-GFP colony enrichment (less Lgr5-negative cells in culture) (EFI-AS1842856 with VPA added): enriched when VPA is added
- concentration dependence of Lgr5+ cell growth, enrichment and expansion of cochlear progenitor cells (background of EFI, range of concentrations): enhances expansion of cochlear progenitor cells concentration-dependent manner; also recorded: concentration-dependent effects
